Data as given in US9695155B2, “Herbicidal substituted pyrimidinyloxy benzene compounds” (E. I. DU PONT DE NEMOURS AND COMPANY, priority 2013, dated 2017).

Tests used:
[1] = test system: kochia; assay: Test A preemergence; assay type: in vivo, Kochia scoparia; conditions: for Plant response rating, Kochia: 125 g ai/ha; for Kochia plant response rating (0 to 100 scale): 31 g ai/ha
In short: (§1)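 Pre- and postemergence greenhouse screen. Soil: loam + sand. Spray carrier: solvent mixture, non-phytotoxic, with surfactant. Post timing at 1–2 leaves, height 2–10 cm. Readout: visual injury on a 0–100 scale roughly 10 days after application, untreated plants as reference.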

[2] = test system: ragweed; assay: Test A preemergence; assay type: in vivo, Ambrosia elatior; conditions: for Plant response rating, Ragweed: 125 g ai/ha; for Ragweed plant response rating (0 to 100 scale): 31 g ai/ha
In short: as §1

[3] = test system: kochia; assay: Test A postemergence; assay type: in vivo, Kochia scoparia
In short: as §1

[4] = test system: blackgrass; assay: Test A postemergence; assay type: in vivo, Alopecurus myosuroides
In short: as §1

[5] = test system: lambsquarters; assay: Test E preemergence; assay type: in vivo, Chenopodium album; conditions: for Lambsquarters plant response rating: scale 0 to 100 (0 no effect, 100 complete control)
Source text: (§2) Seeds of plant species selected from corn (Zea mays), soybean (Glycine max), velvetleaf (Abutilon theophrasti), lambsquarters (Chenopodium album), wild poinsettia (Euphorbia heterophylla), palmer pigweed (Amaranthus palmeri), waterhemp (common waterhemp, Amaranthus rudis), surinam grass (Brachiaria decumbens), large (Lg) crabgrass (Digitaria sanguinalis), Brazilian crabgrass (Digitaria horizontalis), fall panicum (Panicum dichotomiflorum), giant foxtail (Setaria faberii), green foxtail (Setaria viridis), goosegrass (Eleusine indica), johnsongrass (Sorghum halepense), ragweed (common ragweed, Ambrosia elatior), barnyardgrass (Echinochloa crus-galli), sandbur (southern sandbur, Cenchrus echinatus), arrowleaf sida (Sida rhombifolia), Italian ryegrass (Lolium multiflorum), dayflower (Virginia (VA) dayflower, Commelina virginica), field bindweed (Convolvulus arvensis), morningglory (Ipomoea coccinea), nightshade (eastern black nightshade, Solanum ptycanthum), kochia (Kochia scoparia), yellow nutsedge (Cyperus esculentus), cocklebur (common cocklebur, Xanthium strumarium), smartweed (ladysthumb smartweed, and hairy beggarticks (Bidens pilosa), were planted into a silt loam soil and treated preemergence with test chemicals formulated in a non-phytotoxic solvent mixture which included a surfactant.
(§3) At the same time, plants from these crop and weed species and also horseweed (Canada horseweed, Conyza canadensis), waterhemp_RES1, (ALS & Triazine resistant common waterhemp, Amaranthus rudis), and waterhemp_RES2, (ALS & HPPD resistant common waterhemp, Amaranthus rudis) were planted in pots containing Redi-Earth® planting medium (Scotts Company, 14111 Scottslawn Road, Marysville, Ohio 43041) comprising spaghnum peat moss, vermiculite, wetting agent and starter nutrients were treated with postemergence applications of test chemicals formulated in the same manner. Plants ranged in height from 2 to 18 cm for postemergence treatments (1- to 4-leaf stage). Treated plants and controls were maintained in a greenhouse for 14 to 21 days, after which time all species were compared to controls and visually evaluated. Plant response ratings, summarized in Table E, are based on a scale of 0 to 100 where 0 is no effect and 100 is complete control. A dash (-) response means no test result.

[6] = test system: large (Lg) crabgrass; assay: Test E preemergence; assay type: in vivo, Digitaria sanguinalis; conditions: for Crabgrass, Large plant response rating: scale 0 to 100 (0 no effect, 100 complete control)
Source text: as §2, §3

[7] = test system: Italian ryegrass; assay: Test E preemergence; assay type: in vivo, Lolium multiflorum; conditions: for Ryegrass, Italian plant response rating: scale 0 to 100 (0 no effect, 100 complete control)
Source text: as §2, §3

[8] = test system: dayflower; assay: Test E preemergence; assay type: in vivo, Commelina virginica; conditions: for Dayflower, VA plant response rating: scale 0 to 100 (0 no effect, 100 complete control)
Source text: as §2, §3

[9] = test system: yellow nutsedge; assay: Test E preemergence; assay type: in vivo, Cyperus esculentus; conditions: for Nutsedge, Yellow plant response rating: scale 0 to 100 (0 no effect, 100 complete control)
Source text: as §2, §3

[10] = 0 to 100 scale where 0 is no effect and 100 is complete control
[11] = 500 g ai/ha, 0 to 100 scale where 0 is no effect and 100 is complete control
[12] = 125 g ai/ha, 0 to 100 scale where 0 is no effect and 100 is complete control
[13] = 125 g ai/ha, scale 0 to 100, 0 no effect, 100 complete control
[14] = 8 g ai/ha, scale 0 to 100, 0 is no effect, 100 is complete control
[15] = 1000 g ai/ha, 0 to 100 scale, 0 no effect, 100 complete control, approx. 10 days
[16] = 1000 g ai/ha, 0 to 100 scale, 0 no effect, 100 complete control
[17] = 31 g ai/ha, 0 to 100 scale, 0 no effect, 100 complete control
[18] = 500 g ai/ha, 0 to 100 scale, 0 no effect, 100 complete control, approx. 10 days

## FC(F)(F)Sc1cnn(-c2ccccc2Oc2ncc(Cl)cn2)c1 [Compound 132, 5-chloro-2-[2-[4-(trifluoromethylthio)-1H-pyrazol-1-yl]phenoxy]pyrimidine]
[1]; [10]
  Plant response rating, Kochia: 100
[1]; [11]
  Kochia plant response rating: 100
[2]; [10]
  Plant response rating, Ragweed: 0
[2]; [11]
  Ragweed plant response rating: 10
[3]; [12]
  Kochia plant response rating: 90
[3]; [11]
  Plant response rating, Kochia: 100
[4]; [12]
  Blackgrass plant response rating: 60
[4]; [11]
  Plant response rating, Blackgrass: 90

## N#Cc1cnn(-c2c(C#N)cccc2Oc2ncc(F)cn2)c1 [Compound 111]
[5]; 16 g ai/ha
  Lambsquarters plant response rating: 50
[5]; 31 g ai/ha
  Lambsquarters plant response rating: 80
[5]; 62 g ai/ha
  Lambsquarters plant response rating: 98
[5]; [13]
  Plant response rating, Lambsquarters: 100
[6]; 16 g ai/ha
  Crabgrass, Large plant response rating: 15
[6]; 31 g ai/ha
  Crabgrass, Large plant response rating: 35
[6]; 62 g ai/ha
  Crabgrass, Large plant response rating: 90
[6]; [13]
  Plant response rating, Crabgrass, Large: 100
[7]; 16 g ai/ha
  Ryegrass, Italian plant response rating: 0
[7]; 31 g ai/ha
  Ryegrass, Italian plant response rating: 0
[7]; 62 g ai/ha
  Ryegrass, Italian plant response rating: 0
[7]; [13]
  Plant response rating, Ryegrass, Italian: 20
[8]; 16 g ai/ha
  Dayflower, VA plant response rating: 0
[8]; 31 g ai/ha
  Dayflower, VA plant response rating: 0
[8]; 62 g ai/ha
  Dayflower, VA plant response rating: 20
[8]; [13]
  Plant response rating, Dayflower, VA: 20
[9]; 16 g ai/ha
  Nutsedge, Yellow plant response rating: 0
[9]; 31 g ai/ha
  Nutsedge, Yellow plant response rating: 0
[9]; 62 g ai/ha
  Nutsedge, Yellow plant response rating: 0
[9]; [13]
  Plant response rating, Nutsedge, Yellow: 15

## Fc1cccc(Oc2ncc(Cl)cn2)c1-n1cc(I)cn1 [Compound 179]
[5]; [14]
  Plant response rating, Lambsquarters: 0
[5]; 62 g ai/ha
  Lambsquarters plant response rating: 95
[5]; [13]
  Plant response rating, Lambsquarters: 100
[6]; [14]
  Plant response rating, Crabgrass, Large: 0
[6]; 16 g ai/ha
  Crabgrass, Large plant response rating: 0
[6]; 62 g ai/ha
  Crabgrass, Large plant response rating: 75
[6]; [13]
  Plant response rating, Crabgrass, Large: 98
[7]; [14]
  Plant response rating, Ryegrass, Italian: 0
[7]; 62 g ai/ha
  Ryegrass, Italian plant response rating: 15
[7]; [13]
  Plant response rating, Ryegrass, Italian: 15
[8]; [14]
  Plant response rating, Dayflower, VA: 0
[8]; 16 g ai/ha
  Dayflower, VA plant response rating: 0
[8]; 62 g ai/ha
  Dayflower, VA plant response rating: 0
[8]; [13]
  Plant response rating, Dayflower, VA: 60
[9]; [14]
  Plant response rating, Nutsedge, Yellow: 0
[9]; 62 g ai/ha
  Nutsedge, Yellow plant response rating: 30
[9]; [13]
  Plant response rating, Nutsedge, Yellow: 30

## Fc1cccc(Oc2ncc(Cl)cn2)c1-n1cc(C2CC2)nn1 [Compound 155]
[1]; [15]
  Kochia plant response rating: 100
[2]; [15]
  Ragweed plant response rating: 90
[3]; [16]
  Plant response rating, Kochia: 100
[4]; [16]
  Plant response rating, Blackgrass: 100

## FCc1cccc(Oc2ncc(F)cn2)c1-n1cc(C(F)(F)F)cn1 [Compound 118]
[1]
  Kochia plant response rating (0 to 100 scale): 100
[1]; [10]
  Plant response rating, Kochia: 100
[2]
  Ragweed plant response rating (0 to 100 scale): 50
[2]; [10]
  Plant response rating, Ragweed: 90
[3]; [17]
  Plant response rating, Kochia: 60
[3]; [12]
  Plant response rating, Kochia: 100
[4]; [17]
  Plant response rating, Blackgrass: 60
[4]; [12]
  Plant response rating, Blackgrass: 90

## FCc1cccc(Oc2ncc(Br)cn2)c1-n1cc(C(F)(F)F)cn1 [Compound 120]
[1]
  Kochia plant response rating (0 to 100 scale): 20
[1]; [10]
  Plant response rating, Kochia: 90
[2]
  Ragweed plant response rating (0 to 100 scale): 0
[2]; [10]
  Plant response rating, Ragweed: 0
[3]; [17]
  Plant response rating, Kochia: 60
[3]; [12]
  Plant response rating, Kochia: 90
[4]; [17]
  Plant response rating, Blackgrass: 60
[4]; [12]
  Plant response rating, Blackgrass: 80

## FCc1cn(-c2c(F)cccc2Oc2ncc(Cl)cn2)nn1 [Compound 154]
[1]; [15]
  Kochia plant response rating: 100
[2]; [15]
  Ragweed plant response rating: 100
[3]; [16]
  Plant response rating, Kochia: 100
[4]; [16]
  Plant response rating, Blackgrass: 90

## CCOc1cn(-c2c(Br)cccc2Oc2ncc(Cl)cn2)nn1 [Compound 84]
[1]; [10]
  Plant response rating, Kochia: 100
[1]; [18]
  Kochia plant response rating: 100
[2]; [10]
  Plant response rating, Ragweed: 10
[2]; [18]
  Ragweed plant response rating: 40
[3]; [12]
  Plant response rating, Kochia: 100
[3]; [11]
  Plant response rating, Kochia: 100
[4]; [12]
  Plant response rating, Blackgrass: 80
[4]; 500 g ai/ha, 0 to 100 scale, 0 no effect, 100 complete control
  Plant response rating, Blackgrass: 100
